The subject of one series is MCT1. The note with it: cited from earlier work; for MCT1 inhibitor annotation: NOTES/Group column, ref not given.
Series [1] has as its system parent strain (SAWy518).
The conditions of series [2]: cited from earlier work.
In series [3] the test system is parent strain (SAWy518). Briefly: Off-target control in IC50 determination: growth of light-insensitive parent strain at each inhibitor concentration. It is filed as cell-based, Saccharomyces cerevisiae. The following applies: at the dosages used in this study.
The subject of series [4] is parent strain (SAWy518). Briefly: microbe, parasite or virus in culture. More on the design: species or system Saccharomyces cerevisiae SAWy518; Off-target growth counter-screen, OD600 as per cent of untreated wells, strain lacking MCT1. The note with it: 18.5 h; sheet Primary Screen - final;; off-target growth of parent strain, about 18 h.
Another series deals with cancer cell growth. The following applies: cited from earlier work.

The structures appear in SMILES notation. pIC50: −log10 of the molar value. “And” between values parts separate entries of the source, which are not always exact repeats. Equal entries are not always repeated. Where two headings read alike, the source gives them in different places.

The term pIC50 denotes −log10 of the IC50, conventionally taken in molar units. The term viability denotes a read-out of living cells in per cent, often relative to untreated cells.

As for `O=C(O)Cc1ccccc1Nc1c(Cl)cccc1Cl` [Diclofenac, reference compound], in the series with MCT1 (read-out: previously reported inhibition value for MCT1 (IC50)), the negative-log IC50 (pIC50) was 5.85. In addition, in the series with parent strain (SAWy518) [1], the OffScreen_percentage was 100.855 percentage, the Offscreen_18hr was 0.8139, the Offscreen_24hr is recorded as 0.8825 and the Offscreen_42hr is 0.9387. For the same compound, the Read_percentage with parent strain (SAWy518) [1] stood at 100.855 percentage. Also, the blood-plasma concentration in series [2] (150–200 mg daily) is 6.1 µM.
`CC(C(=O)O)c1cccc(C(=O)c2ccccc2)c1` (stereo not shown) [Ketoprofen]: the off-target toxicity result in the series on parent strain (SAWy518) [3] is reported as “do not exhibit off-target toxicity”.
With `O=C(CCc1ccc(O)cc1)c1c(O)cc(O)cc1O` [Phloretin], the viability at 10 µM in the series with parent strain (SAWy518) [4] is 94.4%. Also, in the series on MCT1 (library annotation), the MCT1 inhibitor annotation entry was “MCT1 inhibitor”. In the series on parent strain (SAWy518) [1], the OffScreen_percentage was determined as 94.4238 percentage, the Offscreen_18hr is 0.762, the Offscreen_24hr stood at 0.892 and the Offscreen_42hr worked out at 0.9541. Also, the Read_percentage in the series with parent strain (SAWy518) [1] amounted to 94.4238 percentage.
With `CN1C(C(=O)Nc2ccccn2)=C(O)c2ccccc2S1(=O)=O` [Piroxicam, reference compound], in the series with parent strain (SAWy518) [1], the OffScreen_percentage worked out at 95.2292 percentage; the Offscreen_18hr was 0.7685 and 0.7781; the Offscreen_24hr was 0.8625 and 0.86; the Offscreen_42hr is 0.9267 and 0.9178. In the series on parent strain (SAWy518) [1], the Read_percentage turned out to be 95.2292 percentage. In addition, in series [2] (20 mg/day), the blood-plasma concentration is 16 to 20 µM. For the same compound, the “concentrations of in vitro anticancer activity” value in the series with cancer cell growth is 25 to 30 µM.
With `O=c1c(O)c(-c2ccc(O)c(O)c2)oc2cc(O)cc(O)c12` [Quercetin (Sophoretin)], in the series with MCT1 (library annotation), the “MCT1 inhibition (annotation)” value is listed as “PI3K, PKC, Src, Sirtuin inhibitor, MCT1 inhibitor - flavanoid”. In the series with parent strain (SAWy518) [1], the Offscreen_18hr was found to be 0.7827, the Offscreen_24hr is listed as 0.8834 and the Offscreen_42hr is 0.9444.
Consider `O=c1c(O)c(-c2ccc(O)c(O)c2)oc2cc(O)cc(O)c12` [Quercetin dihydrate], for which the “MCT1 inhibition (annotation)” value in the series with MCT1 (library annotation) was “Known MCT1 inhibitor, PI3-K and PDE inhibitor (flavanoid)”. In addition, in the series with parent strain (SAWy518) [1], the Offscreen_18hr is 0.7753, the Offscreen_24hr came out at 0.8789 and the Offscreen_42hr is 0.9377.
As to `O=c1c(O)c(-c2ccc(O)c(O)c2)oc2cc(O)cc(O)c12` [Quercetin, reference compound], in the series on MCT1 (library annotation), the MCT1 inhibitor annotation result is “Known MCT1 inhibitor, PI3-K and PDE inhibitor (flavanoid)”; the “Known MCT1 inhibitor” value was “Known MCT1 inhibitor, PI3-K and PDE inhibitor (flavanoid)”. For the same compound, in the series on parent strain (SAWy518) [1], the OffScreen_percentage is listed as 96.0719 percentage, the Offscreen_18hr was 0.7753, the Offscreen_24hr is reported as 0.8789 and the Offscreen_42hr is 0.9377. Besides, the Read_percentage in the series on parent strain (SAWy518) [1] came out at 96.0719 percentage.
Turning to `CC1=C(CC(=O)O)c2cc(F)ccc2/C1=C\c1ccc([S+](C)[O-])cc1` (stereo not shown) [Sulindac, reference compound], the off-target toxicity result with parent strain (SAWy518) [3] is “do not exhibit off-target toxicity”. Also, in the series with parent strain (SAWy518) [1], the OffScreen_percentage stood at 103.073 percentage, the Offscreen_18hr was 0.8318, the Offscreen_24hr stood at 0.9131 and the Offscreen_42hr was determined as 0.9739. For the same compound, the Read_percentage with parent strain (SAWy518) [1] came to 103.073.
As for `CCOC(=O)[C@@H](N)Cc1ccc(-c2cc(O[C@H](c3ccc(Cl)cc3-n3ccc(C)n3)C(F)(F)F)nc(N)n2)cc1.O=C(O)CNC(=O)c1ccccc1` [Telotristat Etiprate], the viability at 10 µM with parent strain (SAWy518) [4] turned out to be 96.9%. In the series on parent strain (SAWy518) [1], the OffScreen_percentage is 96.9393 percentage, the Offscreen_18hr was 0.7823, the Offscreen_24hr worked out at 0.9107 and the Offscreen_42hr was 0.9681. For the same compound, the Read_percentage with parent strain (SAWy518) [1] was 96.9393.
As for `N#CC(=C(\N)Sc1ccccc1N)/C(C#N)=C(/N)Sc1ccccc1N` [U0126], in the series with parent strain (SAWy518) [4], the viability at 10 µM was found to be 91.1%. Besides, in the series on parent strain (SAWy518) [1], the OffScreen_percentage is reported as 91.0905 percentage, the Offscreen_18hr amounted to 0.7351, the Offscreen_24hr came to 0.8786 and the Offscreen_42hr is 0.95. Moreover, the Read_percentage in the series on parent strain (SAWy518) [1] is 91.0905.
Take `COc1cc(C(=O)NS(=O)(=O)c2ccccc2C)ccc1Cc1cn(C)c2ccc(NC(=O)OC3CCCC3)cc12` [Zafirlukast]: the viability at 10 µM in the series on parent strain (SAWy518) [4] came to 104%. Besides, in the series with parent strain (SAWy518) [1], the OffScreen_percentage was 103.829 percentage, the Offscreen_18hr is on record as 0.8379, the Offscreen_24hr turned out to be 0.9188 and the Offscreen_42hr stood at 0.9793. The Read_percentage with parent strain (SAWy518) [1] is recorded as 103.829.
As to `COc1c(O)cc2oc3cc(O)c(CC=C(C)C)c(O)c3c(=O)c2c1CC=C(C)C` [alpha-mangostin], the viability at 10 µM in the series with parent strain (SAWy518) [4] was determined as 90%. Also, in the series on parent strain (SAWy518) [1], the OffScreen_percentage is recorded as 89.9628 percentage, the Offscreen_18hr was found to be 0.726, the Offscreen_24hr was determined as 0.8801 and the Offscreen_42hr is 0.9296. For the same compound, in the series on parent strain (SAWy518) [1], the Read_percentage turned out to be 89.9628 percentage.

Values taken from PMC11637378, “Optogenetic screening of MCT1 activity implicates a cluster of non-steroidal anti-inflammatory drugs (NSAIDs) as inhibitors of lactate transport” (PLOS ONE, 2024).
